Experimental findings from the NIST ThermoML archive (doi:10.1016/j.jct.2011.11.021) are described below.

Each structure is given as a SMILES string. ± gives the expanded uncertainty stated by the source.

A short description of one series: activity coefficient (dimensionless); of the first substance listed, at infinite dilution; xn = mol fraction of the nth substance listed. Particulars: 318.15 K; Liquid; Chromatography; x1 = 0.
With `c1ccccc1` [benzene] + COCC[N+]1(C)CCOCC1.O=S(=O)([N-]S(=O)(=O)C(F)(F)F)C(F)(F)F, the activity coefficient amounted to 1.33 ± 0.09.
Turning to `CC1CCCCC1` [methylcyclohexane] + COCC[N+]1(C)CCOCC1.O=S(=O)([N-]S(=O)(=O)C(F)(F)F)C(F)(F)F, the activity coefficient was 27.6 ± 1.9.
The same measure, in the same setting: the value for `CCCCCCCCCC` [decane] + COCC[N+]1(C)CCOCC1.O=S(=O)([N-]S(=O)(=O)C(F)(F)F)C(F)(F)F was 192 ± 13; that for `C#CCCCCCC` [1-octyne] + COCC[N+]1(C)CCOCC1.O=S(=O)([N-]S(=O)(=O)C(F)(F)F)C(F)(F)F was 11.4 ± 0.8; that for `CCCCCCC` [heptane] + COCC[N+]1(C)CCOCC1.O=S(=O)([N-]S(=O)(=O)C(F)(F)F)C(F)(F)F was 54.4 ± 3.7.
As to `C=CCCCC` [hex-1-ene] + COCC[N+]1(C)CCOCC1.O=S(=O)([N-]S(=O)(=O)C(F)(F)F)C(F)(F)F, the activity coefficient amounted to 16.5 ± 1.1.
`C=CCCC` [1-pentene] + COCC[N+]1(C)CCOCC1.O=S(=O)([N-]S(=O)(=O)C(F)(F)F)C(F)(F)F: the activity coefficient turned out to be 11 ± 0.8.
For `CO` [methanol] + COCC[N+]1(C)CCOCC1.O=S(=O)([N-]S(=O)(=O)C(F)(F)F)C(F)(F)F, the activity coefficient turned out to be 1.28 ± 0.08.
Same read-out and setting: for `CC(C)OC(C)C` [diisopropyl ether] + COCC[N+]1(C)CCOCC1.O=S(=O)([N-]S(=O)(=O)C(F)(F)F)C(F)(F)F the value was 10.1 ± 0.7.
As for `CCOC(C)(C)C` [2-ethoxy-2-methylpropane] + COCC[N+]1(C)CCOCC1.O=S(=O)([N-]S(=O)(=O)C(F)(F)F)C(F)(F)F, the activity coefficient amounted to 9.5 ± 0.65.
Still for that read-out and setting: the value for `c1ccsc1` [thiophene] + COCC[N+]1(C)CCOCC1.O=S(=O)([N-]S(=O)(=O)C(F)(F)F)C(F)(F)F was 1.09 ± 0.07; that for `CC#N` [acetonitrile] + COCC[N+]1(C)CCOCC1.O=S(=O)([N-]S(=O)(=O)C(F)(F)F)C(F)(F)F was 0.423 ± 0.035; that for `Cc1ccc(C)cc1` [1,4-dimethylbenzene] + COCC[N+]1(C)CCOCC1.O=S(=O)([N-]S(=O)(=O)C(F)(F)F)C(F)(F)F was 3.09 ± 0.21.
On the same count and under the same terms, the value for `C1CCCCCCC1` [cyclooctane] + COCC[N+]1(C)CCOCC1.O=S(=O)([N-]S(=O)(=O)C(F)(F)F)C(F)(F)F was 36.6 ± 2.5.
The same measure, in the same setting: the value for `CCCC(=O)OC` [methyl butanoate] + COCC[N+]1(C)CCOCC1.O=S(=O)([N-]S(=O)(=O)C(F)(F)F)C(F)(F)F was 1.42 ± 0.09; that for `CC(C)O` [propan-2-ol] + COCC[N+]1(C)CCOCC1.O=S(=O)([N-]S(=O)(=O)C(F)(F)F)C(F)(F)F was 2.17 ± 0.15.
As to `C1COCCO1` [1,4-dioxane] + COCC[N+]1(C)CCOCC1.O=S(=O)([N-]S(=O)(=O)C(F)(F)F)C(F)(F)F, the activity coefficient stood at 0.57 ± 0.041.
Same read-out and setting: the value for `CC(C)(C)O` [2-methylpropan-2-ol] + COCC[N+]1(C)CCOCC1.O=S(=O)([N-]S(=O)(=O)C(F)(F)F)C(F)(F)F was 2.22 ± 0.15.

Staying with this series, now noted: 328.15 K; Liquid; Chromatography; x1 = 0.
For the compound `c1ccccc1` [benzene] + COCC[N+]1(C)CCOCC1.O=S(=O)([N-]S(=O)(=O)C(F)(F)F)C(F)(F)F, the activity coefficient came out at 1.32 ± 0.09.
With `CC1CCCCC1` [methylcyclohexane] + COCC[N+]1(C)CCOCC1.O=S(=O)([N-]S(=O)(=O)C(F)(F)F)C(F)(F)F, the activity coefficient was found to be 24.8 ± 1.7.
Same read-out and setting: the value for `CCCCCCCCCC` [decane] + COCC[N+]1(C)CCOCC1.O=S(=O)([N-]S(=O)(=O)C(F)(F)F)C(F)(F)F was 165 ± 11; that for `C#CCCCCCC` [1-octyne] + COCC[N+]1(C)CCOCC1.O=S(=O)([N-]S(=O)(=O)C(F)(F)F)C(F)(F)F was 11 ± 0.8; that for `CCCCCCC` [heptane] + COCC[N+]1(C)CCOCC1.O=S(=O)([N-]S(=O)(=O)C(F)(F)F)C(F)(F)F was 48.7 ± 3.3.
For the compound `C=CCCCC` [hex-1-ene] + COCC[N+]1(C)CCOCC1.O=S(=O)([N-]S(=O)(=O)C(F)(F)F)C(F)(F)F, the activity coefficient came out at 15.3 ± 1.
Same read-out and setting: for `C=CCCC` [1-pentene] + COCC[N+]1(C)CCOCC1.O=S(=O)([N-]S(=O)(=O)C(F)(F)F)C(F)(F)F the value was 10.3 ± 0.7.
Same read-out and setting: the value for `CO` [methanol] + COCC[N+]1(C)CCOCC1.O=S(=O)([N-]S(=O)(=O)C(F)(F)F)C(F)(F)F was 1.18 ± 0.08.
Same read-out and setting: the value for `CC(C)OC(C)C` [diisopropyl ether] + COCC[N+]1(C)CCOCC1.O=S(=O)([N-]S(=O)(=O)C(F)(F)F)C(F)(F)F was 9.8 ± 0.67; that for `CCOC(C)(C)C` [2-ethoxy-2-methylpropane] + COCC[N+]1(C)CCOCC1.O=S(=O)([N-]S(=O)(=O)C(F)(F)F)C(F)(F)F was 9.21 ± 0.63.
`c1ccsc1` [thiophene] + COCC[N+]1(C)CCOCC1.O=S(=O)([N-]S(=O)(=O)C(F)(F)F)C(F)(F)F: the activity coefficient came out at 1.08 ± 0.07.
Still for that read-out and setting: the value for `CC#N` [acetonitrile] + COCC[N+]1(C)CCOCC1.O=S(=O)([N-]S(=O)(=O)C(F)(F)F)C(F)(F)F was 0.426 ± 0.035; that for `Cc1ccc(C)cc1` [1,4-dimethylbenzene] + COCC[N+]1(C)CCOCC1.O=S(=O)([N-]S(=O)(=O)C(F)(F)F)C(F)(F)F was 3.06 ± 0.21.
Same read-out and setting: the value for `C1CCCCCCC1` [cyclooctane] + COCC[N+]1(C)CCOCC1.O=S(=O)([N-]S(=O)(=O)C(F)(F)F)C(F)(F)F was 32.6 ± 2.2.
On to `CCCC(=O)OC` [methyl butanoate] + COCC[N+]1(C)CCOCC1.O=S(=O)([N-]S(=O)(=O)C(F)(F)F)C(F)(F)F, for which the activity coefficient amounted to 1.44 ± 0.09.
Take `CC(C)O` [propan-2-ol] + COCC[N+]1(C)CCOCC1.O=S(=O)([N-]S(=O)(=O)C(F)(F)F)C(F)(F)F: the activity coefficient was 1.95 ± 0.13.
Still for that read-out and setting: for `C1COCCO1` [1,4-dioxane] + COCC[N+]1(C)CCOCC1.O=S(=O)([N-]S(=O)(=O)C(F)(F)F)C(F)(F)F the value was 0.596 ± 0.042.
Same read-out and setting: for `CC(C)(C)O` [2-methylpropan-2-ol] + COCC[N+]1(C)CCOCC1.O=S(=O)([N-]S(=O)(=O)C(F)(F)F)C(F)(F)F the value was 2.03 ± 0.14.

The series is the same for the next values; noted with them: 338.15 K; Liquid; Chromatography; x1 = 0.
Consider `c1ccccc1` [benzene] + COCC[N+]1(C)CCOCC1.O=S(=O)([N-]S(=O)(=O)C(F)(F)F)C(F)(F)F, for which the activity coefficient is 1.32 ± 0.09.
As for `CC1CCCCC1` [methylcyclohexane] + COCC[N+]1(C)CCOCC1.O=S(=O)([N-]S(=O)(=O)C(F)(F)F)C(F)(F)F, the activity coefficient amounted to 22.8 ± 1.6.
On the same count and under the same terms, the value for `CCCCCCCCCC` [decane] + COCC[N+]1(C)CCOCC1.O=S(=O)([N-]S(=O)(=O)C(F)(F)F)C(F)(F)F was 145 ± 10; that for `C#CCCCCCC` [1-octyne] + COCC[N+]1(C)CCOCC1.O=S(=O)([N-]S(=O)(=O)C(F)(F)F)C(F)(F)F was 10.6 ± 0.7.
Turning to `CCCCCCC` [heptane] + COCC[N+]1(C)CCOCC1.O=S(=O)([N-]S(=O)(=O)C(F)(F)F)C(F)(F)F, the activity coefficient came to 43.8 ± 3.
In the case of `C=CCCCC` [hex-1-ene] + COCC[N+]1(C)CCOCC1.O=S(=O)([N-]S(=O)(=O)C(F)(F)F)C(F)(F)F, the activity coefficient was 14.3 ± 1.
Same read-out and setting: the value for `C=CCCC` [1-pentene] + COCC[N+]1(C)CCOCC1.O=S(=O)([N-]S(=O)(=O)C(F)(F)F)C(F)(F)F was 9.79 ± 0.67; that for `CO` [methanol] + COCC[N+]1(C)CCOCC1.O=S(=O)([N-]S(=O)(=O)C(F)(F)F)C(F)(F)F was 1.1 ± 0.07.
Still for that read-out and setting: for `CC(C)OC(C)C` [diisopropyl ether] + COCC[N+]1(C)CCOCC1.O=S(=O)([N-]S(=O)(=O)C(F)(F)F)C(F)(F)F the value was 9.55 ± 0.65; for `CCOC(C)(C)C` [2-ethoxy-2-methylpropane] + COCC[N+]1(C)CCOCC1.O=S(=O)([N-]S(=O)(=O)C(F)(F)F)C(F)(F)F, 8.97 ± 0.61; for `c1ccsc1` [thiophene] + COCC[N+]1(C)CCOCC1.O=S(=O)([N-]S(=O)(=O)C(F)(F)F)C(F)(F)F, 1.08 ± 0.07.
Still for that read-out and setting: for `CC#N` [acetonitrile] + COCC[N+]1(C)CCOCC1.O=S(=O)([N-]S(=O)(=O)C(F)(F)F)C(F)(F)F the value was 0.428 ± 0.035; for `Cc1ccc(C)cc1` [1,4-dimethylbenzene] + COCC[N+]1(C)CCOCC1.O=S(=O)([N-]S(=O)(=O)C(F)(F)F)C(F)(F)F, 3.03 ± 0.21.
Take `C1CCCCCCC1` [cyclooctane] + COCC[N+]1(C)CCOCC1.O=S(=O)([N-]S(=O)(=O)C(F)(F)F)C(F)(F)F: the activity coefficient was 29.6 ± 2.
Take `CCCC(=O)OC` [methyl butanoate] + COCC[N+]1(C)CCOCC1.O=S(=O)([N-]S(=O)(=O)C(F)(F)F)C(F)(F)F: the activity coefficient stood at 1.45 ± 0.1.
Consider `CC(C)O` [propan-2-ol] + COCC[N+]1(C)CCOCC1.O=S(=O)([N-]S(=O)(=O)C(F)(F)F)C(F)(F)F, for which the activity coefficient stood at 1.79 ± 0.12.
For the compound `C1COCCO1` [1,4-dioxane] + COCC[N+]1(C)CCOCC1.O=S(=O)([N-]S(=O)(=O)C(F)(F)F)C(F)(F)F, the activity coefficient amounted to 0.615 ± 0.043.
The same measure, in the same setting: for `CC(C)(C)O` [2-methylpropan-2-ol] + COCC[N+]1(C)CCOCC1.O=S(=O)([N-]S(=O)(=O)C(F)(F)F)C(F)(F)F the value was 1.88 ± 0.13.
